Assay results reported in paper PMC12596218 (Journal of Lipid Research, 2025).
Where “and” joins values, the source holds several entries; their conditions need not be identical. Equal values may be shown once. Read-outs that look alike come from different tables or passages of the source.

Tests used:
ASBT = molecular target: T1, ASBT (Homo sapiens, UniProt Q12908); assay: [3H]TC transport and inhibition assay in ASBT-HEK293 cells; type: cell-based; settings: for IC50: 1 μM [3H]TC, 10 min, ASBT-HEK293, two independent experiments
T1 construct: stably transfected with the full open reading frames of human NTCP, ASBT, SOAT, OATP1B1, OATP1B3, OATP2B1, and murine Asbt (mAsbt); expressed in transfected cells; host or cells: HEK293 (Flp-In), stably transfected, tetracycline-induced
T1 sequence (Q12908 1-348): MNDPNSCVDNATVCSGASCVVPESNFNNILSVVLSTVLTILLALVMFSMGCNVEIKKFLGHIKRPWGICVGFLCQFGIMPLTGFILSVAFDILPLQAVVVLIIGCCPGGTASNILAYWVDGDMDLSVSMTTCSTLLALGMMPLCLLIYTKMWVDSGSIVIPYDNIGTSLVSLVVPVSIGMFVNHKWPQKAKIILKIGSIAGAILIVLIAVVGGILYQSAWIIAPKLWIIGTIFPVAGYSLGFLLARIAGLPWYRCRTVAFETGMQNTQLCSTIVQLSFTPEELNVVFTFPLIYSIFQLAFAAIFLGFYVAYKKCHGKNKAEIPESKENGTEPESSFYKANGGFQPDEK
Source text: (§1) Human embryonic kidney HEK293 cells, stably transfected with the full open reading frames of human NTCP, ASBT, SOAT, OATP1B1, OATP1B3, OATP2B1, and murine Asbt (mAsbt) were used as reported ([18], [20], [21], [22], [23]). The NTCP, ASBT, and mAsbt constructs were C-terminally tagged with the FLAG epitope, and the SOAT construct was C-terminally tagged with green fluorescent protein. Non-transfected Flp-In HEK293 cells (Thermo Fisher Scientific) served as the control. All cell lines were maintained at 37°C, 5% CO2 and 95% humidity in DMEM/F-12 medium (Thermo Fisher Scientific) supplemented with 10% fetal calf serum (Sigma-Aldrich), 4 mM L-glutamine (PAA) and penicillin/streptomycin (PAA). Expression of the respective carrier protein was induced by tetracycline treatment at 1 μg/ml (Carl Roth GmbH + Co. KG).
(§2) Cells were seeded onto poly-L-lysine-coated 96-well plates, induced with 1 μg/ml tetracycline, and grown to confluence over 72 h at 37°C. Then, cells were washed with tempered (37°C) phosphate-buffered saline (PBS, containing 137.0 mM NaCl, 2.7 mM KCl, 1.5 mM KH2PO4, and 7.3 mM Na2HPO4, at pH 7.4) and preincubated with 80 μl sodium transport buffer (STB, containing 142.9 mM NaCl, 4.7 mM KCl, 1.2 mM MgSO4, 1.2 mM KH2PO4, 1.8 mM CaCl2, and 20.0 mM HEPES, at pH 7.4) for 5 min at 37°C. For inhibition studies, the medium was replaced by 80 μl STB containing the respective inhibitor or solvent alone and cells were further incubated for 5 min at 37°C. Transport experiments were started by adding 20 μl of a 5-fold concentrated substrate solution (solved in STB). For transport experiments under sodium-free conditions the same buffer composition was used as for STB, but sodium chloride was substituted with equimolar concentrations of choline chloride as previously reported ([20], [24]). Transport experiments were stopped by washing twice with ice-cold PBS and the plates were kept cool on ice until adding the lysis buffer [1% sodium dodecyl sulfate (SDS) and 1 N NaOH]. Then, the cell-associated radioactivity of the respective tritium-labeled substrate or ligand was quantified by liquid scintillation counting using MicroScint-20 scintillation cocktail (Revvity) in a Packard Microplate Scintillation Counter TopCount NXT (Packard Instrument Company). For IC50 transport inhibition measurements, the mean uptake values measured in non-carrier-expressing HEK293 control cells were defined as 0% uptake control and were subtracted from all other values. Values from cells without inhibitor and solvent alone were set to 100%. Finally, all net transport data were expressed as uptake or binding as % of control. All transport or inhibition graphs were generated with GraphPad Prism 6 (GraphPad). Determination of half maximal inhibitory concentrations (IC50) was done by nonlinear regression analysis using the equation log (inhibitor) versus response—variable slope settings. All data points of the IC50 curves represent means ± SD of quadruplicate determinations. For Km measurements, BS uptake in the absence of sodium was regarded as carrier-independent unspecific uptake and was subtracted from the transport rates in the presence of sodium to obtain carrier-specific uptake rates (indicated as dashed lines). From the specific uptake rates, Michaelis Menten Km values were calculated by non-linear regression analysis.

OATP1B3 [1] = molecular target: T2, OATP1B3 (Homo sapiens, UniProt Q9NPD5); assay: [3H]BSP transport inhibition assay in OATP1B3-HEK293 cells; type: cell-based; settings: 1 μM [3H]BSP, 10 min; two independent experiments
T2 construct: stably transfected with the full open reading frames of human NTCP, ASBT, SOAT, OATP1B1, OATP1B3, OATP2B1, and murine Asbt (mAsbt); expressed in transfected cells; host or cells: HEK293, stably transfected (OATP1B3-HEK), tetracycline-induced
T2 sequence (Q9NPD5 1-702): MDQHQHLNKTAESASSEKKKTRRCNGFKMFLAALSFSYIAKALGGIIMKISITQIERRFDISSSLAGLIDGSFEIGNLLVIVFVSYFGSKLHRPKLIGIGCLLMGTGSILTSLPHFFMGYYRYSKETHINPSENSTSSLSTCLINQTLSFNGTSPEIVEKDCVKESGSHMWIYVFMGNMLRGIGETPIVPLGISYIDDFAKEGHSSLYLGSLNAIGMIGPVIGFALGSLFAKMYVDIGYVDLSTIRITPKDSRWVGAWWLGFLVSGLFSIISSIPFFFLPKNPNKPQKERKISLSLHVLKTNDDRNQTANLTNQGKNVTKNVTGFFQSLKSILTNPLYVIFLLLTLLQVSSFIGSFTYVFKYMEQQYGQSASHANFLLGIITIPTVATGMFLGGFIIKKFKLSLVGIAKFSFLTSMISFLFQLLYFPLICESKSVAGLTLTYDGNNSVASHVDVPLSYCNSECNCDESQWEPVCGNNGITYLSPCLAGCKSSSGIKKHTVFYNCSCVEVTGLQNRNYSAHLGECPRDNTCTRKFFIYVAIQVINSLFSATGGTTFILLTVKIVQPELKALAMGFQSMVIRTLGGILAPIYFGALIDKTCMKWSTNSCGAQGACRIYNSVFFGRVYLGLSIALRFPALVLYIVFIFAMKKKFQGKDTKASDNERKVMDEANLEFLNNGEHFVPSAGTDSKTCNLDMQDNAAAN
Source text: as §1, §2

OATP1B3 [2] = settings: cited from earlier work; for IC50: read-out: IC50 OATP1B3 inhibition

SMILES	IC50 (ASBT)	IC50 (OATP1B3 [1])	also measured
CCCCC1(CCCC)CN(c2ccccc2)c2cc(SC)c(OCC(=O)N[C@@H](C(=O)NCC(=O)O)c3ccccc3)cc2S(=O)(=O)C1 [elobixibat]	0.11 µM and 0.23 µM	4.8 µM and 4.2 µM	IC50 ratio for ASBT versus NTCP inhibition (ASBT; measured in this study): 0.002-0.006; IC50 (OATP1B3 [2]; in vitro studies, ref PMDA Goofice Report on the Deliberation Results): > 0.6 µM
CCCCC1(CCCC)CS(=O)(=O)c2ccc(N(C)C)cc2[C@@H](c2ccc(OCc3ccc(C[N+]45CCN(CC4)CC5)cc3)cc2)[C@H]1O [maralixibat]	–	5.5 µM and 5.2 µM	OATP1B3 inhibition (in words) (OATP1B3 [2]; in vitro, ref FDA NDA 214662 Livmarli): In vitro, maralixibat did not inhibit the transporters OATP1B1 and OATP1B3.
CCCCC1(CCCC)CS(=O)(=O)c2ccc(N(C)C)cc2[C@@H](c2ccc(OCCCC[N+]34CCN(CC3)CC4)cc2)[C@H]1O [SC-435]	0.2 µM and 0.23 µM	2 to 8 µM and 7.8 µM and 5.1 µM	–

Continued, in another order:

IC50 (ASBT)	IC50 (OATP1B3 [1])	SMILES	also measured
0.68 µM and 0.99 µM	5.1 µM and 4.3 µM	CCCCC1(CCCC)CN(c2ccccc2)c2cc(SC)c(OCC(=O)N[C@@H](C(=O)N[C@@H](CC)C(=O)O)c3ccc(O)cc3)cc2S(=O)(=O)N1 [odevixibat]	IC50 (OATP1B3 [2]; in vitro studies, ref FDA NDA 215498 BYLVAY): 0.697 µM; OATP1B3 inhibition (in words) (OATP1B3 [2]; ref EMA EPAR Product Information Bylvay): Odevixibat does not inhibit OATP1B1 and OATP1B3.
0.18 µM and 0.25 µM	2 to 8 µM and 3.6 µM and 2.2 µM	CCCC[C@]1(CC)CS(=O)(=O)c2cc(CNC(CC(=O)O)CC(=O)O)c(OC)cc2[C@@H](c2ccccc2)N1 [linerixibat]	Transport inhibition at highest substrate concentration (ASBT; 500 μM [3H]TC): full transport inhibition; Slope of IC50 values versus TC substrate concentration (ASBT; [3H]TC 0.3-500 μM, linear regression): 4.0 × 10^−4; Substrate of OATP1B3 (OATP1B3 [2]): is a substrate; IC50 (OATP1B3 [2]; ref 65 Zamek-Gliszczynski et al. (2021)): 0.265 µM
